Two compounds from US12281080B2, “Quinoline-based compounds and methods of inhibiting CDK8/19” (University of South Carolina, priority 2018, dated 2025) can be followed below.

A short description of data set [1]: Mouse pharmacokinetics, intraperitoneal, serum. The class given is in vivo, mice. The note with it: i.p. 27 mg/kg, male Balb/c mice. As to the method: […] Blood samples were collected at different time points (5 mice per time point) and Senexin C concentration in the serum was measured by LC/MS/MS.
Data set [2] has as its system CDK8/19-mediated NFκB-driven transcription. Kind of data set: NFκB-dependent luciferase reporter assay in parental 293 reporter cells. It counts as cell-based, human. The note with it: parental 293-derived reporter cell line; read-out: HEK293 NFKB CDK8 Reporter IC50.
The next data set concerns the target MAP4K2 (Homo sapiens (Human), UniProt Q12851). Kind of data set: DiscoverX Kd assay. The note with it: average from duplicate measurements.
In the next data set the target is CDK8 (Homo sapiens (Human), UniProt P49336). Kind of data set: DiscoverX Kd assay. The note with it: average from duplicate measurements.
CDK8, sequence (P49336 whole entry): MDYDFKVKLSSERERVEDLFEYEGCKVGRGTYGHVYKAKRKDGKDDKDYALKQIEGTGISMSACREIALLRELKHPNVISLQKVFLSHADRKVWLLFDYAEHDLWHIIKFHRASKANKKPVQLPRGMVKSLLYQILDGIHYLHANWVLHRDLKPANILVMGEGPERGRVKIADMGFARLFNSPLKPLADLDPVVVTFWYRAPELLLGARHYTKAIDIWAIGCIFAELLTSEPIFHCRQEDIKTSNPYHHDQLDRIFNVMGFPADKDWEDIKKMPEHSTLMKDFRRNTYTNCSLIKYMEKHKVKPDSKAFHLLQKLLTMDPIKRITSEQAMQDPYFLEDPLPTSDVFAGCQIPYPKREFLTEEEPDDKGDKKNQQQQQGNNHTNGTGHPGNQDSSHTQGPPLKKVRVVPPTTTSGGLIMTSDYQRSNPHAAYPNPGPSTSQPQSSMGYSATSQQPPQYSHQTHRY
The target of another data set is HASPIN (Homo sapiens (Human), UniProt Q8TF76). Kind of data set: DiscoverX Kd assay. To be noted: average from duplicate measurements.
HASPIN, sequence (Q8TF76 whole entry): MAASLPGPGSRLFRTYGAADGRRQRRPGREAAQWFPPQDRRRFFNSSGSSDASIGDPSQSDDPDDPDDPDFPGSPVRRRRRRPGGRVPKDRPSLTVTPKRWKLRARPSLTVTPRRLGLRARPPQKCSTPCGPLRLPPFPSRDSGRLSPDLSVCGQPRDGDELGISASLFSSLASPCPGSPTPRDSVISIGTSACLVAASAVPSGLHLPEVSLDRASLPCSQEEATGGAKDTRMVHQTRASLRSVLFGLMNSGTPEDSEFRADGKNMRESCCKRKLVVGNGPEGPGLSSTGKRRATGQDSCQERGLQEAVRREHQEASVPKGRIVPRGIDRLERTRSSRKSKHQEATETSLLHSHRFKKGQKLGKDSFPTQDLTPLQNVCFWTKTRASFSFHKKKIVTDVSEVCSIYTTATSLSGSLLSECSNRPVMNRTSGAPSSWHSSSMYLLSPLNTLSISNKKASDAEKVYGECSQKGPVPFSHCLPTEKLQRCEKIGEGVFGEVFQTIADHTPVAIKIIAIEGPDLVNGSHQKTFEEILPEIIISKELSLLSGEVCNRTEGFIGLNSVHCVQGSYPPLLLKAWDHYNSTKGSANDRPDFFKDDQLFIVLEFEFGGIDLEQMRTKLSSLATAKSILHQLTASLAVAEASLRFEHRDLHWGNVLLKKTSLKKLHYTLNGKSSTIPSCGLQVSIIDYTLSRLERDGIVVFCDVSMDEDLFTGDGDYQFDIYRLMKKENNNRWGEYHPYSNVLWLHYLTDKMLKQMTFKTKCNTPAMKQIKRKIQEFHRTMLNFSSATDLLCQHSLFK
The next data set deals with MYO3B (Homo sapiens (Human), UniProt Q8WXR4). Briefly: DiscoverX Kd assay.
MYO3B, sequence (Q8WXR4 whole entry): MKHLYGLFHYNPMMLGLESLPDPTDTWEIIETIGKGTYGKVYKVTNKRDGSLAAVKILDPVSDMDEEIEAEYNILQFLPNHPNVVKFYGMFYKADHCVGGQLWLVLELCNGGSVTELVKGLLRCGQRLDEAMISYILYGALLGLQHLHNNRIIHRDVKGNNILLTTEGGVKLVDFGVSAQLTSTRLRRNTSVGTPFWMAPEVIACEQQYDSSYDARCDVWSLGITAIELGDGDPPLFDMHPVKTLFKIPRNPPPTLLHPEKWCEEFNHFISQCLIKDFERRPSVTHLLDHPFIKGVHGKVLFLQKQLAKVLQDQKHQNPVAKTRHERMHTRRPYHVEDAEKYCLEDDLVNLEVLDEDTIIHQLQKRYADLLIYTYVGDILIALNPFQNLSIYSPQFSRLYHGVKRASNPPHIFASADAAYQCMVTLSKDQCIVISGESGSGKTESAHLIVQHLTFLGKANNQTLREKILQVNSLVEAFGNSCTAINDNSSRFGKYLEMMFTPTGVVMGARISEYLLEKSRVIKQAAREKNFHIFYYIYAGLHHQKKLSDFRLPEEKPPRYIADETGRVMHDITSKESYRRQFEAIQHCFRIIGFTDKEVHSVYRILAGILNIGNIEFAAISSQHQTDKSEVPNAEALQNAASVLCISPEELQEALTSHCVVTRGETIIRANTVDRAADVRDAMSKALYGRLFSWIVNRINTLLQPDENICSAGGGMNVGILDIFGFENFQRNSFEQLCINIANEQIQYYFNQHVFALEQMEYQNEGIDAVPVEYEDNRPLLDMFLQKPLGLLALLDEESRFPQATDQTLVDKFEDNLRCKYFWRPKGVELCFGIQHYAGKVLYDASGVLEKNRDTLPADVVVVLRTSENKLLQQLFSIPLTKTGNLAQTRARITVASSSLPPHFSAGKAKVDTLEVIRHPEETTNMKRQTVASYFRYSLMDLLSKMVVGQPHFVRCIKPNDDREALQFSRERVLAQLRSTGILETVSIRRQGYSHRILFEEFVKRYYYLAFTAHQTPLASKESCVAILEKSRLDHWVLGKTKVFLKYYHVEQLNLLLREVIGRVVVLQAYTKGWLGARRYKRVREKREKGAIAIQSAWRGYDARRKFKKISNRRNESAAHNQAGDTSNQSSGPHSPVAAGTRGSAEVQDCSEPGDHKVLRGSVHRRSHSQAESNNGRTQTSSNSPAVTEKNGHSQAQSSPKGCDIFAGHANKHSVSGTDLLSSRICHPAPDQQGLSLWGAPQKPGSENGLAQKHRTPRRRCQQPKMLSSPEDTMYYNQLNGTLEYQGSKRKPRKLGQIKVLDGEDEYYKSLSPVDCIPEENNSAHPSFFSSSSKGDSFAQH
For a further data set, the system named is CDK8/19. Kind of data set: Wash-off assay, MYC and JUN expression in 293 cells (QPCR). The class given is cell-based, human. To be noted: 1 μM for 2 hours, then wash-off. The method, then: RNA was extracted at different time points after wash-off (up to 24 hrs) and expression of MYC and JUN genes that are CDK8/19-dependent in these cells was measured by QPCR. […] In contrast, after Senexin C treatment and wash-off, the effects of Senexin C were largely retained for at least 6 hrs after wash-off.

For data set [3], the system named is NFκB-dependent promoter in CDK8/19 deficient (double-knockout) reporter cells. Kind of data set: NFκB-dependent luciferase reporter assay, CDK8/19 double-knockout vs wild-type 293 cells. To be noted: double-knockout vs parental reporter cells.
From the text: The second cell-based assay measures the effects of CDK8/19 on the expression of firefly luciferase reporter from a NFκB-dependent promoter in 293 cells.

MAP4K2, sequence (Q12851 whole entry): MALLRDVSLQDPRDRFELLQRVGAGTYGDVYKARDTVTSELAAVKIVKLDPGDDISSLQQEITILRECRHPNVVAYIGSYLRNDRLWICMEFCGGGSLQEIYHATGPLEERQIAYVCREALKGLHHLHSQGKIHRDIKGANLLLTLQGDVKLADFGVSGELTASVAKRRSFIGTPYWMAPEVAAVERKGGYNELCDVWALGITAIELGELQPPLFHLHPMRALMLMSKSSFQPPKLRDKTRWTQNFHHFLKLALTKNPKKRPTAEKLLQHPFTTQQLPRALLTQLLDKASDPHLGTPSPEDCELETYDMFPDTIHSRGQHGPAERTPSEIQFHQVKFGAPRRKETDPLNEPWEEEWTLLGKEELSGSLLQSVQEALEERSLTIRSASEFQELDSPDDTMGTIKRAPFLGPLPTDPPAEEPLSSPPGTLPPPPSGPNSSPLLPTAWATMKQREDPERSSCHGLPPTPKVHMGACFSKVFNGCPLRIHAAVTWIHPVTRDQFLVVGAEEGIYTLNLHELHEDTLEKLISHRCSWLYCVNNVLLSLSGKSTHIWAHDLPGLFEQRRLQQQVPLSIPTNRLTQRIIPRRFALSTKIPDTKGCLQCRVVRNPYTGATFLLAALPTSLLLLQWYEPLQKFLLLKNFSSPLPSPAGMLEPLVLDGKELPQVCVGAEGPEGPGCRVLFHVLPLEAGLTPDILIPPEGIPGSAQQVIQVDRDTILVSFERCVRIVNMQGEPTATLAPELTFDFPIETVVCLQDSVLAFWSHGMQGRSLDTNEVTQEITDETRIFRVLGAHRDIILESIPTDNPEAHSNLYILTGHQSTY

For the compound `CN1CCN(C(=O)c2ccc3cc(CCNc4ncnc5ccc(C#N)cc45)ccc3c2)CC1` [Senexin B, reference compound], in data set [1], the AUC turned out to be 1760.53 ng·h/mL, the Cmax turned out to be 4248 ng/mL, the “bioavailability (F %)” value was 57% and the elimination rate k is 3.99 h⁻¹. Besides, in data set [1], the t1/2 came to 10.2 min. The IC50 in data set [2] worked out at 117 nM. This compound showed a Kd on MAP4K2 of 570 nM. This compound also returned a Kd on CDK8 of 59 nM. Moreover, on HASPIN, the Kd was 1700 nM. The “Inhibition of MYO3B” value on MYO3B is “not inhibited”. In the data set with CDK8/19, the “Time to full restoration of JUN expression after wash-off” value was 45 min and the “Time to full restoration of MYC expression after wash-off” value was 2 h.
For the compound `Cc1ccc(S(=O)(=O)N[C@@H](Cc2ccccc2)C(=O)CCl)cc1` [TPCK, reference compound], the “IC50 in CDK8/19-deficient cells relative to wild-type cells” value in data set [3] is “almost the same”.
